From ChEMBL document CHEMBL5357083 (ACS Med Chem Lett, 2024)

What was measured:
[1] = in vitro; conditions: mouse, liver microsomes
[2] = in vitro; conditions: dog, MDCK-MDR1

## Brc1ccc2[nH]nc(C3=CCCNC3)c2c1
[1]
  CLhep predicted at […], 1 µM: 57 mL/min/kg
[2]
  Papp A→B at 5 µM: 7.9 ×10⁻⁶ cm/s
